In ChEMBL document CHEMBL1201862, “PubChem BioAssay data set” (2004):
The source made the active and inactive calls.

Experiments:
[1] = target: Dual specificity tyrosine-phosphorylation-regulated kinase 1B (Homo sapiens, UniProt Q9Y463); test: Navigating the Kinome. Panel member name: DYRK1B; format: functional
[2] = target: T1, Tyrosine-protein kinase receptor TYRO3 (Homo sapiens, UniProt Q06418); format: functional;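 further: TYRO3 value obtained as one member of a kinome-wide profiling panel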
T1 sequence (Q06418 whole entry): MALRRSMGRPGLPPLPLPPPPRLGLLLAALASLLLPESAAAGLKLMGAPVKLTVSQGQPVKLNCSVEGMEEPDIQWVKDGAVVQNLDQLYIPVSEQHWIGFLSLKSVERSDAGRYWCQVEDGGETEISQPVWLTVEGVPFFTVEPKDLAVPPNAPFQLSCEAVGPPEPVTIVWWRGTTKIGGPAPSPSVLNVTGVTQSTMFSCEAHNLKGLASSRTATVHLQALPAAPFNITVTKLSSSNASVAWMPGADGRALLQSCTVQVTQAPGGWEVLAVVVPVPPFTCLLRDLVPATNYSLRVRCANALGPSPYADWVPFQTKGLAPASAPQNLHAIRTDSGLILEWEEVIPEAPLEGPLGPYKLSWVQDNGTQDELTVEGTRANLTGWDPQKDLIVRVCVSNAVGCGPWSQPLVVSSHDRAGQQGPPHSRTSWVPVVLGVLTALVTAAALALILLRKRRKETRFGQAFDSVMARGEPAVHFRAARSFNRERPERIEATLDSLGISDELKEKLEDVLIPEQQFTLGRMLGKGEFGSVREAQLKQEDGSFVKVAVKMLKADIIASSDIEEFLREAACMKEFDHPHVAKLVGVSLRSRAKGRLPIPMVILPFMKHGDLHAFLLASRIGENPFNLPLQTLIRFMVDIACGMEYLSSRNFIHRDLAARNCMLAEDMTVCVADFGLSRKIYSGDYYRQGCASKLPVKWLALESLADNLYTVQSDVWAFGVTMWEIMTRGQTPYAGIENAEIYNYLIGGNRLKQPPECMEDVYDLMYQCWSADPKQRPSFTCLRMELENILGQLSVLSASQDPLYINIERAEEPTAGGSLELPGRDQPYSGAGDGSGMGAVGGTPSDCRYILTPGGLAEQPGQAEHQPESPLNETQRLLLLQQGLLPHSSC

[3] = general mammalian cell viability loss – inhibitor set, cherry-pick, set 2, cytotoxicity control for miR-122 modulator project, dose response (AID 720697); format: functional, cell-based
[4] = activation of miR-122 Renilla sensor silencing – cell-based, Huh7 psiCHECK-miR122, Renilla luciferase, cherry-picked, dose response (AID 651956); format: functional;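 further: huh7 hepatoma cells stably carrying a psiCHECK-2 miR-122 sensor plasmid; renilla luciferase signal reporting endogenous miR-122 activity after 48 h compound exposure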
[5] = OVCAR8 cell viability loss – plate reader, dry powder samples, PAX8 project, dose response (AID 743197); format: functional, cell-based; conditions: OVCAR-8
[6] = OVCAR-3 cell viability loss – plate reader, dry powder samples, PAX8 inhibitor project, dose response (AID 743044); format: functional, cell-based
[7] = IGROV1 cell killing – plate reader, dry powder samples, PAX8 inhibitor project, dose response (AID 743043); format: functional, cell-based; conditions: IGROV-1
[8] = target: Paired box protein Pax-8 (Homo sapiens, UniProt Q06710); test: PAX8 transcriptional activity inhibition in RMG-I – RMG-I cells, luciferase, cherry-pick, dose response (AID 687027); format: functional, cell-based;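 further: luciferase reporter driven by Pax8 target thyroperoxidase promoter measured by SteadyGlo luminescence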
[9] = target: T2, Small ubiquitin-related modifier 1 (Homo sapiens, UniProt P63165); test: SUMO1 protein-protein binding blockers, potency – biochemical, FRET, dose response (AID 624383); format: functional; conditions: read-out: IC50_Mean
[10] = target: T2, Small ubiquitin-related modifier 1; test: SUMO1 protein interaction blockers, potency – biochemical, fluorescence polarization, uHTS hits, dose response (AID 624382); format: functional; conditions: read-out: IC50_Mean

T2 sequence (P63165 whole entry): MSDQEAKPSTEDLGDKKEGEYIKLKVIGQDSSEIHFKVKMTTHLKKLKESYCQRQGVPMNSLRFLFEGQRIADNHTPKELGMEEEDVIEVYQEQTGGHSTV
Sequence of Paired box protein Pax-8 (Q06710 whole entry): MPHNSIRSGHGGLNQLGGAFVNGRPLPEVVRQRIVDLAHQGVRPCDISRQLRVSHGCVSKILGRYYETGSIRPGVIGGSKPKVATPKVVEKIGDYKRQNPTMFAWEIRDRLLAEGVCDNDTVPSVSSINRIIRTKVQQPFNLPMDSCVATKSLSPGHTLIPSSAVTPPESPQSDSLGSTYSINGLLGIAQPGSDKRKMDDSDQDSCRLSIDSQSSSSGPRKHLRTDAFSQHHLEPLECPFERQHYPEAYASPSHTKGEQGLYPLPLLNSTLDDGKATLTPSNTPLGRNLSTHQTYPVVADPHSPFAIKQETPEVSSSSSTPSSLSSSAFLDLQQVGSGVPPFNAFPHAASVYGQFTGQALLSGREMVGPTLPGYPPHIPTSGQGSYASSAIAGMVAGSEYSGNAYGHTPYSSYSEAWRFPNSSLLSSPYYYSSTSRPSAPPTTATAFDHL
Sequence of Dual specificity tyrosine-phosphorylation-regulated kinase 1B (Q9Y463 whole entry): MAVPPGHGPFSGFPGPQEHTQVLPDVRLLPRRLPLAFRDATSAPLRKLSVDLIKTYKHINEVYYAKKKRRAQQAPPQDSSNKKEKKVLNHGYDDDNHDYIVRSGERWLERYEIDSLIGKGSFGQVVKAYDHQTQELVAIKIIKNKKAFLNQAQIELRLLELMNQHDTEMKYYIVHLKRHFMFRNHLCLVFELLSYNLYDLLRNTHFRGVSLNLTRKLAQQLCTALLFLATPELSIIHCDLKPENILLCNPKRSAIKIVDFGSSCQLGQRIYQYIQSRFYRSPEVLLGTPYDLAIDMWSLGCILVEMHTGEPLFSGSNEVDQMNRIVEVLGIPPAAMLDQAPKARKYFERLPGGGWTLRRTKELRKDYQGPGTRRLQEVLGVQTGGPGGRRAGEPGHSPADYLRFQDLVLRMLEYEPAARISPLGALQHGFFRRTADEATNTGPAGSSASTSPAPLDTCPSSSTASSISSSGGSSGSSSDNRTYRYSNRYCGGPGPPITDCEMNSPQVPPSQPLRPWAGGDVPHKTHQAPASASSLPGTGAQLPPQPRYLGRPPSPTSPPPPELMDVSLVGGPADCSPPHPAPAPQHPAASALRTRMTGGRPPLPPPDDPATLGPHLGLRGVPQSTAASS

## O=c1[nH]c2cnc(Cl)nc2[nH]1
[1]
  Ki: 79.4 µM (active)
[2]
  Ki: 79.4 µM (active)

## COc1ccc(-c2ccc3c(c2)O[C@H](CN(C)C(=O)Nc2ccccc2F)[C@H](C)CN([C@@H](C)CO)S3(=O)=O)cc1
[3]
  AC50: 0.5 µM (active)
[4]
  AC50: 9.32 µM (active)

## CNC(=O)C[C@H]1CC[C@@H]2[C@H](COc3ccc(NS(=O)(=O)c4ccc(F)cc4)cc3C(=O)N2C)O1
[4]
  AC50: 47.9 µM (active)

## C[C@@H]1CCCCO[C@@H](CN(C)C(=O)Nc2ccc(C(F)(F)F)cc2)[C@H](C)CN([C@H](C)CO)C(=O)c2cc(NS(=O)(=O)c3cccs3)ccc2O1
[5]
  AC50: 39.4 µM (active)
[6]
  AC50: 20 µM (active)
[7]
  AC50: 45.5 µM (active)
[8]
  AC50: 8.64 µM (active)

## O=C(N/N=C/c1cccnc1)c1cccc(NC(=O)c2ccc(Cl)cc2)c1
[9]
  IC50: 5.33 µM (active)
[10]
  IC50: > 66.6 µM (inactive)
